# Data reported in patent US7622490B2, “Broadspecturm 2-amino-benzoxazole sulfonamide HIV protease inhibitors” (Tibotec Pharmaceuticals, Ltd., priority 2001, dated 2009).
# Assays:
# Type in all cases: cell-based
# HIV-1 strain LAI = assay: Cellular anti-HIV assay (MTT) in MT4 cells, wild type strain; conditions: five days
# Procedure: The compounds of the present invention were examined for anti-viral activity in a cellular assay. […] The cellular assay was performed according to the following procedure.
# (§1) HIV- or mock-infected MT4 cells were incubated for five days in the presence of various concentrations of the inhibitor. At the end of the incubation period, all HIV-infected cells have been killed by the replicating virus in the control cultures in the absence of any inhibitor. Cell viability is measured by measuring the concentration of MTT, a yellow, water soluble tetrazolium dye that is converted to a purple, water insoluble formazan in the mitochondria of living cells only. Upon solubilization of the resulting formazan crystals with isopropanol, the absorbance of the solution is monitored at 540 nm. The values correlate directly to the number of living cells remaining in the culture at the completion of the five day incubation. The inhibitory activity of the compound was monitored on the virus-infected cells and was expressed as EC50 and EC90. […] Whetever results are reported as e.g. pEC50 or pCC50 values, the result is expressed as the negative logarithm of the result expressed as EC50 or CC50 respectively.
# (§2) As a measure of the broad spectrum activity of the present compounds, the fold resistance (FR), defined as FR=EC50(mutant strain)/EC50(HIV-I strain LAI), was determined.
# HIV strain A = assay: Cellular anti-HIV assay, clinically isolated mutant strain A; conditions: FR=EC50(mutant strain)/EC50(HIV-I strain LAI); MT4 cells
# Procedure: as §1, with “EC90. These values represent the amount of the compound required to protect 50% and 90%, respectively, of the cells from the cytopathogenic effect of the virus.” for “EC90.”, “respectively. […]” for “respectively.”
# as §2
# HIV strain B = assay: Cellular anti-HIV assay, clinically isolated mutant strain B; conditions: FR=EC50(mutant strain)/EC50(HIV-I strain LAI); MT4 cells
# Procedure: as §1, with “EC90. These values represent the amount of the compound required to protect 50% and 90%, respectively, of the cells from the cytopathogenic effect of the virus.” for “EC90.”, “respectively. […]” for “respectively.”
# as §2
# HIV strain C = assay: Cellular anti-HIV assay, clinically isolated mutant strain C; conditions: FR=EC50(mutant strain)/EC50(HIV-I strain LAI); MT4 cells
# Procedure: as §1, with “EC90. These values represent the amount of the compound required to protect 50% and 90%, respectively, of the cells from the cytopathogenic effect of the virus.” for “EC90.”, “respectively. […]” for “respectively.”
# as §2
# HIV strain D = assay: Cellular anti-HIV assay, clinically isolated mutant strain D; conditions: FR=EC50(mutant strain)/EC50(HIV-I strain LAI); MT4 cells
# Procedure: as §1, with “EC90. These values represent the amount of the compound required to protect 50% and 90%, respectively, of the cells from the cytopathogenic effect of the virus.” for “EC90.”, “respectively. […]” for “respectively.”
# as §2
# HIV strain E = assay: Cellular anti-HIV assay, clinically isolated mutant strain E; conditions: FR=EC50(mutant strain)/EC50(HIV-I strain LAI); MT4 cells
# Procedure: as §1, with “EC90. These values represent the amount of the compound required to protect 50% and 90%, respectively, of the cells from the cytopathogenic effect of the virus.” for “EC90.”, “respectively. […]” for “respectively.”
# as §2
# HIV strain F = assay: Cellular anti-HIV assay, clinically isolated mutant strain F; conditions: FR=EC50(mutant strain)/EC50(HIV-I strain LAI); MT4 cells
# Procedure: as §1, with “EC90. These values represent the amount of the compound required to protect 50% and 90%, respectively, of the cells from the cytopathogenic effect of the virus.” for “EC90.”, “respectively. […]” for “respectively.”
# as §2
# mock-infected MT4 cells = assay: Toxicity on mock-infected MT4 cells (MTT); conditions: pCC50 value as determined with mock transfected cells; five days
# Procedure: as §1, with “EC90. These values represent the amount of the compound required to protect 50% and 90%, respectively, of the cells from the cytopathogenic effect of the virus.” for “EC90.”
# as §2
Compound,WT (pEC50) (HIV-1 strain LAI),FR value towards mutant A (HIV strain A),FR towards mutant B (HIV strain B),FR towards mutant C (HIV strain C),FR towards mutant D (HIV strain D),FR towards mutant E (HIV strain E),FR towards mutant F (HIV strain F),Tox (pCC50) (mock-infected MT4 cells)
CNc1nc2ccc(S(=O)(=O)N(CC(C)C)CC(O)C(Cc3ccccc3)NC(=O)OC3COC4OCCNC34)cc2o1 (mixture of isomers) [Compound 43],7.32,3.3,1.6,0.8,0.62,0.59,14,4
CNc1nc2ccc(S(=O)(=O)N(CC(C)C)CC(O)C(Cc3ccccc3)NC(=O)OC3COC4OCCNC34)cc2o1 (mixture of isomers) [Compound 44],7.36,1.6,1.3,0.93,0.56,0.56,4.9,4
